Assay results published in PMC10699038, “Identifying molecular tags selectively retained on the surface of brain endothelial cells to generate artificial targets for therapy delivery” (Fluids and Barriers of the CNS, 2023).

System: b.End3 cells
Assay: Peptide-mediated protein (avidin-FITC/albumin-FITC) delivery to b.End3 cells
Assay type: cell-based, mouse
Conditions: N-terminal biotin peptide, increasing concentrations, 1 h, 4 °C, avidin-FITC 50 µg/mL, 30 min, fluorescence, 3 independent experiments, triplicate
Procedure: Confluent endothelial monolayers were treated with increasing peptide concentrations in HBSS (1 h at 4 °C, unless otherwise stated). After removing unbound peptide, cells were either incubated in appropriate cell culture medium (37 °C) for varying time-points, or directly treated with neutravidin-FITC or albumin-FITC (0.83 mM, in HBSS, 30 min at 4 °C). After removing unbound protein with thorough HBSS washes, fluorescence (490/525 em/ex) was quantified with a Spark multimode microplate reader (Tecan) or imaged through confocal microscopy (Additional file 1: Diagram S1a–c).

Q: With HAIYPRH [Tf peptide] as the substance, how does the “Avidin delivery to b.End3 cells” value read?
A: lower avidin delivery than CFAG
